In one test the test system is p-AKT1/2/3-S473. Nature of the test: Cellular p-AKT1/2/3-S473 assay in KPL-4 cells. Format: cell-based. The note with it: Homo sapiens, KPL4, read-out: pAKT-S473 median IC50, 2 hours treatment, read-out: pAKT-S743 median IC50. As for the experimental part:
(§1) The molecular mechanism of action was investigated in a set of experiments to assess the inhibition of the PI3K-AKT-mTOR pathway in responsive cell lines such as KPL-4 breast tumour cell line (PIK3CA^H1047R, HER2^O/E and hormone independent). The phospho-substrates of PI3K-AKT-mTOR axis were used as the readouts to reflect pathway inhibition. Cells were seeded at 60-80% confluency per well in 96-well cell culture plates. After overnight incubation at 37° C. 5% CO2, cells were treated with compounds and vehicle at 37° C. for 2 hours. Thereafter, cells were lysed in 150 μl lysis buffer and the levels of phospho-AKT at 1308 and S473 and p-4E-BP1 at T70 sites were determined with the corresponding AlphaScreen® SureFire® assay kits (Perkin Elmer: 4E-BPI Assay Kit Cat # TRG4E2S10K; Akt 1/2/3 p-Ser 473 #TGRA4S500 and Akt 1/2/3 p-Thr 308 #TGRA3S500 as well as IgG detection Kit #6760617M) as described in the manuals. All measurements where at least done in duplicates and confirmed by independent repetition. Alternatively pAKT-S473 was measured using the “Akt Duplex” of the MULTI-SPOT® Assay System (Fa. Meso Scale Discovery, Cat# N41100B-1) following manufacturers instructions. Each assay used 20 μg of protein extract and measured total AKT and p-AKT content simultaneously in one well. All measurements where at least done in duplicates and confirmed by independent repetition. Values for P-AKT are expressed as percentage of P-AKT level compared to total-AKT content of the extracts.

Test [1] concerns MCF-7 breast tumour cell line. Nature of the test: Tumor cell proliferation assay (CellTiter-Glo), MCF-7. Format: cell-based. The note with it: Homo sapiens, MCF7, 72 h drug exposure; for inhibition at 1.67 µM: read-out: MCF-7 median inhibition at 1.67 μM (%). The protocol:
(§2) Biological Assay 4.0: Tumor Cell Proliferation Assays
(§3) Compounds were tested in a cell-based assay that measures the capacity of the compounds to inhibit tumour cell proliferation following a 72 h drug exposure. Cell viability is determined using CellTiter-Glow® (CTG, Promega, cat# G7571/2/3). The CellTiter-Glo® Luminescent Cell Viability Assay is a homogeneous method to determine the number of viable cells in culture. Detection is based on using the luciferase reaction to measure the amount of ATP from viable cells. The amount of ATP in cells correlates with cell viability. Within minutes after a loss of membrane integrity, cells lose the ability to synthesize ATP, and endogenous ATPases destroy any remaining ATP; thus the levels of ATP fall precipitously.
(§4) Cells were plated at 3000-5000 cells/well (depending on the cell lines) in 90 μL growth medium on MTPs (Corning; #3603, black plate, clear flat bottom). For each cell line assayed, cells were plated onto a separate plate for determination of […] at t=0 hour and t=72 hour time points. Following overnight incubation at 37° C., chemiluminescence values for the t=0 samples were determined after adding 10 μl medium and 100 μl CTG solution according to manufacture protocol. Plates for the t=72 hour time points were treated with compounds diluted into growth medium at ten times final concentration added in 10 μL to the cell culture plate. Cells were then incubated for 72 hours at 37° C. Chemiluminescence values for the t=72 hour samples were determined. […] Experiments were controlled using a reference compound as standard.
(§5) Preferred compounds of the present invention show in this assay an inhibition of cell growth of cell lines such as the KPL-4 breast cancer cell line and the MCF-7 breast tumour cell line ([…], hormone dependent) with a median IC50 of <10 μM, more preferably, median IC50≦1 μM.

Test [2] deals with KPL-4 breast cancer cell line. Description: Tumor cell proliferation assay (CellTiter-Glo), KPL-4. Format: cell-based. As to conditions: Homo sapiens, KPL4, 72 h drug exposure; for inhibition at 1.67 µM: read-out: KPL-4 median inhibition at 1.67 μM (%). As for the experimental part: as §2, §3, §4, §5
(In general: In ATP-based viability assays light output follows the ATP content of the culture.)

For test [3], the target named is T1, His-tagged human recombinant kinase full-length Akt1 (Homo sapiens, UniProt P31749).
T1 construct: His-tagged human recombinant kinase full-length Akt1; His; purchased Invitrogen PV 3599; host or cells: insect cells
T1 sequence (P31749 whole entry): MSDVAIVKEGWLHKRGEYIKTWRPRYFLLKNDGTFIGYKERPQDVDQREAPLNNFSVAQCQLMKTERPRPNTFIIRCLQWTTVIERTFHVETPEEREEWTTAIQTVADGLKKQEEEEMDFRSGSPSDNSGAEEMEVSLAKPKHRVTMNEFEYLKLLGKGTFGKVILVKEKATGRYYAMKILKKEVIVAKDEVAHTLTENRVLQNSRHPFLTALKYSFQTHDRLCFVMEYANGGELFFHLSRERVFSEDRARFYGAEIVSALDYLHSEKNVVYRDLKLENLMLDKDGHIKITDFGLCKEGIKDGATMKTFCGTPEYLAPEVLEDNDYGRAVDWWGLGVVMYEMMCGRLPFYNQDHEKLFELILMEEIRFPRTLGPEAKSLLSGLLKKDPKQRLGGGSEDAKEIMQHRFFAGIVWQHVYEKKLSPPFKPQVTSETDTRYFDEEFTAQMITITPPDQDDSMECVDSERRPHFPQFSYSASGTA
Nature of the test: Akt1 kinase assay (TR-FRET). The format is biochemical. As to conditions: 10 μM ATP, 60 min at 22° C.; read-out: Akt1, median IC50. The text has this: Biological Assay 1.0: Akt1 Kinase Assay
Akt1 inhibitory activity of compounds of the present invention was quantified employing the Akt1 TR-FRET assay as described in the following paragraphs.
His-tagged human recombinant kinase full-length Akt1 expressed in insect cells was purchased form Invitrogen (part number PV 3599). As substrate for the kinase reaction the biotinylated peptide biotin-Ahx-KKLNRTLSFAEPG (SEQ ID NO: 1) (C-terminus in amide form) was used which can be purchased e.g. from the company Biosynthan GmbH (Berlin-Buch, Germany).
(§6) For the assay 50 nl of a 100fold concentrated solution of the test compound in DMSO was pipetted into a black low volume 384well microtiter plate (Greiner Bio-One, Frickenhausen, Germany), 2 μl of a solution of Akt1 in assay buffer [50 mM TRIS/HCl pH 7.5, 5 mM MgCl2, 1 mM dithiothreitol, 0.02% (v/v) Triton X-100 (Sigma)]were added and the mixture was incubated for 15 min at 22° C. to allow prebinding of the test compounds to the enzyme before the start of the kinase reaction. Then the kinase reaction was started by the addition of 3 μl of a solution of adenosine-tri-phosphate (ATP, 16.7 μM=>final conc. in the 5 μl assay volume is 10 μM) and substrate (1.67 μM=>final conc. in the 5 μl assay volume is 1 μM) in assay buffer and the resulting mixture was incubated for a reaction time of 60 min at 22° C. […]
The resulting mixture was incubated 1 h at 22° C. to allow the binding of the biotinylated phosphorylated peptide to the streptavidine-XL665 and the antibodies. Subsequently the amount of phosphorylated substrate was evaluated by measurement of the resonance energy transfer from the anti-mouse-IgG-Eu-Chelate to the streptavidine-XL665. Therefore, the fluorescence emissions at 620 nm and 665 nm after excitation at 350 nm was measured in a HTRF reader, e.g. a Rubystar (BMG Labtechnologies, Offenburg, Germany) or a Viewlux (Perkin-Elmer). […]
(In general: Time-resolved FRET reads energy transfer from a long-lived donor to a nearby acceptor.)

The next test deals with p-4E-BP1-T70. Nature of the test: Cellular p-4E-BP1-T70 assay in KPL-4 cells. The format is cell-based. The note with it: Homo sapiens, KPL4, 2 hours treatment, read-out: P4EBP1-T70 median IC50. The protocol:
as §1

The target in test [4] is T2, His-tagged human recombinant kinase full-length Akt2 (Homo sapiens, UniProt P31751).
T2 construct: His-tagged human recombinant kinase full-length Akt2; His; purchased Invitrogen PV 3975; host or cells: insect cells
T2 sequence (P31751 whole entry): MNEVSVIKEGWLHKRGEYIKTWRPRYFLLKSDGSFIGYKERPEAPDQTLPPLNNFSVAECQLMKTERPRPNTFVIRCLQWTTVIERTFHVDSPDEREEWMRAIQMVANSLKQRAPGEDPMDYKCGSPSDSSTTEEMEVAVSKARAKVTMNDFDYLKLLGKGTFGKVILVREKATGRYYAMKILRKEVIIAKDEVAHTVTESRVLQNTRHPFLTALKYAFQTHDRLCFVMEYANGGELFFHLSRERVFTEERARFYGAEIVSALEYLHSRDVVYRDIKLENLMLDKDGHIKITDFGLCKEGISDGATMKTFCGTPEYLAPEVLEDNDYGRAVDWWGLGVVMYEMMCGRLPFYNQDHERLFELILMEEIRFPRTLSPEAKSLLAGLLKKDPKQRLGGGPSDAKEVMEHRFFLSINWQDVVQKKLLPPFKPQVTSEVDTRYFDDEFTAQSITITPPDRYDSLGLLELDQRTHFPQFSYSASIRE
Nature of the test: Akt2 kinase assay (TR-FRET). The note with it: 10 μM ATP, 60 min at 22° C.; read-out: Akt2, median IC50. The format is biochemical.
Source text: Biological Assay 2.0: Akt2 Kinase Assay
Akt2 inhibitory activity of compounds of the present invention was quantified employing the Akt2 TR-FRET assay as described in the following paragraphs.
His-tagged human recombinant kinase full-length Akt2 expressed in insect cells and activated by PDK1 was purchased from Invitrogen (part number PV 3975). As substrate for the kinase reaction the biotinylated peptide biotin-Ahx-KKLNRTLSFAEPG (SEQ ID NO: 1) (C-terminus in amide form) was used which can be purchased e.g. from the company Biosynthan GmbH (Berlin-Buch, Germany).
as §6, with “Akt2” for “Akt1”, “(Sigma)] were” for “(Sigma)]were”
The resulting mixture was incubated 1 h at 22° C. to allow the binding of the biotinylated phosphorylated peptide to the streptavidine-XL665 and the antibodies. Subsequently the amount of phosphorylated substrate was evaluated by measurement of the resonance energy transfer from the anti-mouse-IgG-Eu-Chelate to the streptavidine-XL665. Therefore, the fluorescence emissions at 620 nm and 665 nm after excitation at 350 nm was measured in a TR-FRET reader, e.g. a Rubystar (BMG Labtechnologies, Offenburg, Germany) or a Viewlux (Perkin-Elmer). […]

Among the data in patent US9370517B2, “Substituted pyrazolopyrimidines as Akt kinase inhibitors” (Bayer Intellectual Property GmbH, priority 2012, dated 2016) are IC50 and inhibition values, retold here.

On to `Cc1cc(C)n2nc(-c3ccc(C4(N)CCC4)cc3)c(-c3ccccc3)c2n1` [Example 1, 1-[4-(5,7-Dimethyl-3-phenylpyrazolo[1,5-a]pyrimidin-2-yl)-phenyl]cyclobutanamine], for which the IC50 in the test with p-AKT1/2/3-S473 is 130 nM; in test [1] it was 1800 nM; in test [2], 1900 nM; in test [3] it was 66 nM; in the test with p-4E-BP1-T70, 1800 nM; in test [4] it was 460 nM. For the same compound, the inhibition at 1.67 µM in test [1] is 47.4%; in test [2], 29.8%.

For `CCc1cc(CC)n2nc(-c3ccc(C4(N)CCC4)cc3)c(-c3ccccc3)c2n1` [Example 2, 1-[4-(5,7-Diethyl-3-phenylpyrazolo[1,5-a]pyrimidin-2-yl)phenyl]-cyclobutanamine], the IC50 in the test with p-AKT1/2/3-S473 was found to be 1700 nM; in test [1], 2000 nM; in test [2], 2200 nM; in test [3], 410 nM; in the test on p-4E-BP1-T70, 3700 nM; in test [4], 410 nM. Further, the inhibition at 1.67 µM in test [1] is 24.5%; in test [2], 7.1%.

Regarding `NC1(c2ccc(-c3nn4c(C(F)(F)F)cc(C(F)(F)F)nc4c3-c3ccccc3)cc2)CCC1` [Example 3, 1-{4-[3-Phenyl-5,7-bis(trifluoromethyl)pyrazolo[1,5-a]pyrimidin-2-yl]phenyl}cyclobutanamine], the concentration for half-maximal inhibition (IC50) in the test on p-AKT1/2/3-S473 is 1800 nM; in test [1] it was 2000 nM; in test [2] it was 2400 nM; in test [3], 320 nM; with p-4E-BP1-T70, 3300 nM; in test [4] it was 860 nM. The inhibition at 1.67 µM in test [1] was found to be 25.6%; in test [2] it was 6.6%.

As usually defined, the IC50 is the midpoint of a concentration-inhibition curve. A word on the inhibition: it is the drop in the measured response relative to a control, in per cent.
